The text below walks through data of US7423026B2, “Methylated cyclodextrin complexes” (PediPharm Oy, priority 2002, dated 2008).

Series [1] is described as follows: Aqueous phase-solubility study of cannabinoids with RM-β-CD. The class given is physicochemical. To be noted: for complexation constant for 1:1 inclusion complex, K1:1 / complexation constant for 1:2 inclusion complex, K1:2: with RM-β-CD, calculated from Ap-type phase-solubility diagram. The text has this:
(§1) AU the phase-solubility diagrams (cannabinoid concentration as a function of CD concentration) are Ap-type (Higuchi and Connors 1965) and calculated complexation constants for 1:1 and 1:2 inclusion complexes has been shown in Table 1.

The nature of series [2]: Aqueous phase-solubility study of cannabinoids with HP-β-CD. It is filed as physicochemical. The conditions noted are these: calculated from Ap-type phase-solubility diagram.
From the text: as §1

Series [3] in a line: Dissolution studies of CBD formulations in 2% RM-β-CD dissolution media (pH 6.6). The conditions noted are these: gelatine capsule, 1.0 mg pure CBD and 99 mg lactose, without RM-β-CD, 2% RM-β-CD media. The class given is physicochemical.
Series [4] is described as follows: Dissolution studies of THC formulations in 2% RM-β-CD dissolution media (pH 6.6). To be noted: gelatine capsule, 1.0 mg pure THC and 99 mg lactose, without RM-β-CD, 2% RM-β-CD media. The class given is physicochemical.
The nature of series [5]: Aqueous solubility of THC in HP-β-CD solution (Jarho et al.). It is filed as physicochemical. The conditions noted are these: calculated from Jarho et al. On the procedure:
Compared to earlier findings, methylated β-CD improves the aqueous solubility of cannabinoids more efficiently, imparting promising dissolution properties for cannabinoids. […] However, the complexation of cannabinoids with methylated β-CD is more efficient compared to HP-β-CD.
As discussed above, the bioavailability of THC is 6-20% after oral administration. THC is commercially available as a capsule containing 5-10 mg of THC (Marinol). […] Thus, it can be calculated that 2 g of HP-β-CD is needed to establish a dosage form containing 5 mg of complexed THC. This is an amount that is too much for tablet formulations. According to the invention it has now been shown that the same amount of THC can be complexed with 200 mg of RM-β-CD.

The conditions of series [6]: 40% solution of HP-β-CD; cited from earlier work.
The conditions of series [7]: oral administration, depending on the drug vehicle; cited from earlier work.

SMILES strings stand for the structures.

As to `C=C(C)[C@@H]1CCC(C)=C[C@H]1c1c(O)cc(CCCCC)cc1O` [CBD, cannabidiol], in series [1], the “complexation constant for 1:1 inclusion complex, K1:1” value (shortened to “complexation constant … K1:1”) is recorded as 484 145 M^−1 and the “complexation constant for 1:2 inclusion complex, K1:2” value (from here on “complexation constant … K1:2”) is 8 M⁻¹. In series [2], the “complexation constant … K1:1” value is reported as 13 844 M^−1 and the “complexation constant … K1:2” value is 62 M⁻¹. For the same compound, the “time until CBD is fully dissolved” value in series [3] turned out to be 3 h.
On to `CCCCCc1cc(O)c2c(c1)OC(C)(C)[C@@H]1CCC(C)=C[C@@H]21` [THC, Δ^9-tetrahydrocannabinol], for which the “amount of RM-β-CD to prepare the same formulation (1 mg of THC)” value in series [1] (1 mg of THC) came to 25.7 mg. Further, the “amount of RM-β-CD that complexes 5 mg of THC” value in series [1] (same amount of THC (5 mg)) was determined as 200 mg. Moreover, in series [1], the “complexation constant … K1:1” value is given as 19 563 M^−1 and the “complexation constant … K1:2” value is 38 M⁻¹. In series [2], the “complexation constant … K1:1” value is 4 222 M^−1 and the “complexation constant … K1:2” value was 58 M⁻¹. Moreover, the “time until THC is fully dissolved” value in series [4] was found to be 1 h. Besides, in series [5], the “amount of HP-β-CD needed for a dosage form containing 5 mg of complexed THC” value is 2 g and the “amount of HP-β-CD needed to complex 1 mg of THC” value is given as 400 mg. Further, in series [6], the “concentration of THC solution obtained” value was 1000 µg/mL. Besides, the bioavailability in series [7] was 6-20%.
